As a reminder, the IC50 is the concentration needed to halve the response being measured. A lower IC50 goes with greater potency in that assay.

Experimental findings from paper PMC12838157, “A Multikinase Inhibitor AX-0085 Blocks FGFR1 Activation to Overcomes Osimertinib Resistance in Non-Small Cell Lung Cancer” (Biomedicines, 2025) are described below.

The structures appear in SMILES notation.

Assay [1] concerns the target FGFR1 (fibroblast growth factor receptor 1) (Homo sapiens, UniProt P11362). The assay can be described thus: kinase assay IC50 (called cell-based kinase assay in the Figure […] legend); also reduced phospho-FGFR1 in HCC827-osi cells.
For another assay, the target named is T1, AXL (Homo sapiens, UniProt P30530).
T1 sequence (P30530 26-894): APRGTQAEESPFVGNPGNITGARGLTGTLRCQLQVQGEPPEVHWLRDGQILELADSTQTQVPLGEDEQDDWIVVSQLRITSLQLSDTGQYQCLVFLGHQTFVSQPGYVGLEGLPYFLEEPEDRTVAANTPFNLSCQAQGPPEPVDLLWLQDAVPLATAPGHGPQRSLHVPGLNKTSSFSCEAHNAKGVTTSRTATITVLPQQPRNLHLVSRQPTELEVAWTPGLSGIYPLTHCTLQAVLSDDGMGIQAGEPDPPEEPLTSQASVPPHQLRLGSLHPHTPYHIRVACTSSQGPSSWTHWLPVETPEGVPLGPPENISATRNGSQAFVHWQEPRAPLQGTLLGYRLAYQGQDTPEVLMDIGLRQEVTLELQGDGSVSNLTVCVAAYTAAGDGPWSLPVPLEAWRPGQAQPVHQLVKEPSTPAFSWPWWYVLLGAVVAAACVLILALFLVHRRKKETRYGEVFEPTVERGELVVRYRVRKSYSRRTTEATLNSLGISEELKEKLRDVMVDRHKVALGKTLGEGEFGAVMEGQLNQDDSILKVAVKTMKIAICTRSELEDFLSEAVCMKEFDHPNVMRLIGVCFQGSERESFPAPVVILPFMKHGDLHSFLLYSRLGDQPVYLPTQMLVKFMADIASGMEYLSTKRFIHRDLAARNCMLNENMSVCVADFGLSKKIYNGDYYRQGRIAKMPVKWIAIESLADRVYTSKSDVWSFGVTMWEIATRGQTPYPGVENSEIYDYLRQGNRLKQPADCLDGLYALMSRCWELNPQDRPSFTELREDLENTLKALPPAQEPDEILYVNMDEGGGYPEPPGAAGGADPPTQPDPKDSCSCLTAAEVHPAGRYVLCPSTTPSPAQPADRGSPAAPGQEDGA
The assay can be described thus: kinase assay IC50 (called cell-based kinase assay in the Figure […] legend); also reduced phospho-AXL in HCC827-osi cells.

Sequence of FGFR1 (fibroblast growth factor receptor 1) (P11362 22-822): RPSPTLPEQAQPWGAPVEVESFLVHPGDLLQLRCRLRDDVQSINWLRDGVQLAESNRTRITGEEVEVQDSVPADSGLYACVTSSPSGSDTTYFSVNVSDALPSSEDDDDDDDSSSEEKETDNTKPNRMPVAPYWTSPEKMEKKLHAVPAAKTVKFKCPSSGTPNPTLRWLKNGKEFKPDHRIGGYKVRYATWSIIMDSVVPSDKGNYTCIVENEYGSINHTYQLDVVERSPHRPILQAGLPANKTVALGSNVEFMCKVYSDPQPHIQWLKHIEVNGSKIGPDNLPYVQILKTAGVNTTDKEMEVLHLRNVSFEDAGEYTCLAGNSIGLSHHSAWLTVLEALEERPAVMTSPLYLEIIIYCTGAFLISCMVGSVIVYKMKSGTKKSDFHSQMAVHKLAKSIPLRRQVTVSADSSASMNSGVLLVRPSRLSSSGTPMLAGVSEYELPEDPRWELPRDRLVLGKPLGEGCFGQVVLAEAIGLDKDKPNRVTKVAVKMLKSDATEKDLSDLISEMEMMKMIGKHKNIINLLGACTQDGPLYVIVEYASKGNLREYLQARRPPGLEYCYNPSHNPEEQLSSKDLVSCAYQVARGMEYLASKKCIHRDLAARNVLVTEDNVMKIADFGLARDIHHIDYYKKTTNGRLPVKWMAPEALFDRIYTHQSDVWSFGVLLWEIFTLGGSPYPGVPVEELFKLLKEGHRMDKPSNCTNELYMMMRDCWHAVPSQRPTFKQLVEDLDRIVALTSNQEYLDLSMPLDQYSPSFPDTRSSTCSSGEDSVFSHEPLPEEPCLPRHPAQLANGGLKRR

Take `CN1C(=O)N(c2cc(NC(=O)c3cccc(C(F)(F)F)c3)cnc2Cl)Cc2cnc(Nc3ccccc3)nc21` [AX-0085]: the IC50 came out at 2.2 nM in assay [1] and 4.4 nM on AXL.
